Patent publication US12492188B2, “1H-benzo[D]imidazole derivatives as TLR9 inhibitors for the treatment of fibrosis” (BRISTOL-MYERS SQUIBB COMPANY, priority 2020, dated 2025)
Like-named read-outs stand apart in the source and are kept apart here.

Columns and labels:
Format in all cases: cell-based
[1] = target: T1, human TLR9 (Homo sapiens, UniProt Q9NR96); assay: TLR9 inhibition reporter assay (HEK-Blue cells, secreted embryonic alkaline phosphatase reporter)
T1 construct: host or cells: HEK-Blue cells (HEK293-derived reporter line)
T1 sequence (Q9NR96 26-1032): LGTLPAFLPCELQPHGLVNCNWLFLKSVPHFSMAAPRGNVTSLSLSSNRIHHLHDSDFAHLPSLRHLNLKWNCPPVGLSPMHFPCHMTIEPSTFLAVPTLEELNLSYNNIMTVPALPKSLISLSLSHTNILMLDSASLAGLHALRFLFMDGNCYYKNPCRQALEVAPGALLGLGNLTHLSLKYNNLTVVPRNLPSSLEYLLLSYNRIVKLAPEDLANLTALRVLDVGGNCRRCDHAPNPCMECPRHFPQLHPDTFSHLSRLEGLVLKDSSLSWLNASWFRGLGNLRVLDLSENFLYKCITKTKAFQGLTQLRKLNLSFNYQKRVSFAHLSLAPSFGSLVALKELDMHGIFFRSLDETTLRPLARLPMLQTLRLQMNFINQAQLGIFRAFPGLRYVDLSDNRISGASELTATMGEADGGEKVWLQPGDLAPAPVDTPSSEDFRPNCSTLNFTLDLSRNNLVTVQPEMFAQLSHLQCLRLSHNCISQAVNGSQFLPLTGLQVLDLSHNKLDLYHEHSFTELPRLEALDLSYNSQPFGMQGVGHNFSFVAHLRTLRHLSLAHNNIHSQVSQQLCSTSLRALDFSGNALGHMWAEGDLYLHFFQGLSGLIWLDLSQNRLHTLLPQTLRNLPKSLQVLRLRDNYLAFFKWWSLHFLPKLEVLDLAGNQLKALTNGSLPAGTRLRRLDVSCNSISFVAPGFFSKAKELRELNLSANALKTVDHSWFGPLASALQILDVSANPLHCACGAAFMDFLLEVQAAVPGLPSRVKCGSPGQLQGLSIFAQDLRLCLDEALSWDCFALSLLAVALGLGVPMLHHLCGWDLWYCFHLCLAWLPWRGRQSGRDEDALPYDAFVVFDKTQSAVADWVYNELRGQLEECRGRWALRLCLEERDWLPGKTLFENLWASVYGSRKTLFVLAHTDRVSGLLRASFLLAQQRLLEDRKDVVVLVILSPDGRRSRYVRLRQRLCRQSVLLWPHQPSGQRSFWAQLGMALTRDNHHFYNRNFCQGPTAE
How it was run: (§1)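 Inhibitors are tested in dose response (0.05 nM–50 μM) on HEK-Blue reporter cells expressing human TLR7, TLR8 or TLR9. After 30 min at room temperature, each line is stimulated with its own agonist (gardiquimod 7.5 μM, R848 15.9 μM or ODN2006 5 nM, final) and SEAP is measured 22 h later.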

[2] = target: T2, human TLR7 (Homo sapiens, UniProt Q9NYK1); assay: TLR7 inhibition reporter assay (HEK-Blue cells, secreted embryonic alkaline phosphatase reporter); details: HEK-Blue cells overexpressing human TLR7, stimulated with gardiquimod 7.5 μM; read-out: TLR 7 IC50
T2 construct: host or cells: HEK-Blue cells (HEK293-derived reporter line)
T2 sequence (Q9NYK1 27-1049): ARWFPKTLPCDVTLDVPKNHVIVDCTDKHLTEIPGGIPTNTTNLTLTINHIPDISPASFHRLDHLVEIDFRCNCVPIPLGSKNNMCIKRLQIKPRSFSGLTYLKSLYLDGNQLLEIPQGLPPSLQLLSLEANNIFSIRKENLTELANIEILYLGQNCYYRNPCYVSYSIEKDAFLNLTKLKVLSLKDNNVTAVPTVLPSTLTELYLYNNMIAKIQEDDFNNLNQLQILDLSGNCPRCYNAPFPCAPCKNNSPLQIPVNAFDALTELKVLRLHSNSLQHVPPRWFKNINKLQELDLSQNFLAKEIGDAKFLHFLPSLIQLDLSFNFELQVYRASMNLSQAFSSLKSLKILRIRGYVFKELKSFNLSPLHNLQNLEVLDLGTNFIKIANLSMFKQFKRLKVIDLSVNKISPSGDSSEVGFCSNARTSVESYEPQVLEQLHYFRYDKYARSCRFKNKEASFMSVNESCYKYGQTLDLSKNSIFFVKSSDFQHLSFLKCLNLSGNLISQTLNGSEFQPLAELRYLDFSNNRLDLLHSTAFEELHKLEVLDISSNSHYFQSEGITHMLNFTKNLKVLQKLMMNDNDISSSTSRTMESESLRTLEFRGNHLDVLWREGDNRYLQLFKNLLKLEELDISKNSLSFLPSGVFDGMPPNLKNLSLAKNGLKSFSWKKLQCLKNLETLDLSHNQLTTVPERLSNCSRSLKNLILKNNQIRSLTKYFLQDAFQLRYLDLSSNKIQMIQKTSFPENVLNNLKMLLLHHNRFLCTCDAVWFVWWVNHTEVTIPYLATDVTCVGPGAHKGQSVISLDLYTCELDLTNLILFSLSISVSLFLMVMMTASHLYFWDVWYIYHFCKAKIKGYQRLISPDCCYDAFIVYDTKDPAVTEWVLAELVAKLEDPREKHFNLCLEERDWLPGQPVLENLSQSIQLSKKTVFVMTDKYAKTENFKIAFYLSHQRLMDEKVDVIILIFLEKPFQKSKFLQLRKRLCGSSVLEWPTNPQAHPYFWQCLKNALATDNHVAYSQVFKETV
How it was run: as §1

[3] = target: T3, human TLR8 (Homo sapiens, UniProt Q9NR97); assay: TLR8 inhibition reporter assay (HEK-Blue cells, secreted embryonic alkaline phosphatase reporter); details: HEK-Blue cells overexpressing human TLR8, stimulated with R848 15.9 μM; read-out: TLR 8 IC50
T3 construct: host or cells: HEK-Blue cells (HEK293-derived reporter line)
T3 sequence (Q9NR97 27-1041): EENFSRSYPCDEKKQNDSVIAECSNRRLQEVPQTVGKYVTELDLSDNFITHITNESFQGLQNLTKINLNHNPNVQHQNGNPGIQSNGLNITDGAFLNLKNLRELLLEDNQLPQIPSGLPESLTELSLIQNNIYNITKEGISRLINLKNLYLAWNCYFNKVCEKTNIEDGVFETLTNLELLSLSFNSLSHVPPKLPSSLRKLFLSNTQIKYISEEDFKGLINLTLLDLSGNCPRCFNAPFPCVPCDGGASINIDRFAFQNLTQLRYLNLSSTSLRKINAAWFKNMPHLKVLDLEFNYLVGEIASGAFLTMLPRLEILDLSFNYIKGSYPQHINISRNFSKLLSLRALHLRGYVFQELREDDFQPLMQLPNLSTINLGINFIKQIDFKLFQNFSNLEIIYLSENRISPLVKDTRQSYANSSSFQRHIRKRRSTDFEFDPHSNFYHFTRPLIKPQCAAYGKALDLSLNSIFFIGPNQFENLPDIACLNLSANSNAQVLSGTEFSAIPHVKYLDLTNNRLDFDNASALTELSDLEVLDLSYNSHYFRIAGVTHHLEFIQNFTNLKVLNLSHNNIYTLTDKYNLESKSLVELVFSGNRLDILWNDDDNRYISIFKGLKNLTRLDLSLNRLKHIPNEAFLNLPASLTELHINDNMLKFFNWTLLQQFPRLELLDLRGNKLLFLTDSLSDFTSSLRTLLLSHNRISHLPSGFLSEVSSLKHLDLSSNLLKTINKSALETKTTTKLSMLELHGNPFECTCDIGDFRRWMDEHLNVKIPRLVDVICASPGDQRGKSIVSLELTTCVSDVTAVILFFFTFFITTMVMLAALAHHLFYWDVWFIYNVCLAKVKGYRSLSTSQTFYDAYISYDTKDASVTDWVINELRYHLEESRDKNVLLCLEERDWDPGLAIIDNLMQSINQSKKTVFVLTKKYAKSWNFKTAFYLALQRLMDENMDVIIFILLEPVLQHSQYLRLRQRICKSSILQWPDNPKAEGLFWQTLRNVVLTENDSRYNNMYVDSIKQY
How it was run: as §1

[4] = HEK-Blue cells overexpressing human TLR9, stimulated with ODN2006 5 nM, read-out: TLR 9 IC50
[5] = HEK-Blue cells overexpressing human TLR9, stimulated with ODN2006 5 nM, 22 hour incubation, reporter readout
[6] = HEK-Blue human TLR9 reporter cells

SMILES | IC50 [1] | IC50 [1, 4] | IC50 [2] | IC50 [3] | IC50 [1, 5] | IC50 [1, 6]
Cn1c(-c2ccc(S(C)(=O)=O)cc2)nc2c(F)c(C3CCN(C4CC5CCC(C4)N5C4COC4)CC3)ccc21 (centres unmarked) [Example 196, 4-fluoro-1-methyl-2-(4-(methylsulfonyl)phenyl)-5-(1-(8-(oxetan-3-yl)-8-azabicyclo[3.2.1]octan-3-yl)piperidin-4-yl)-1H-benzo[d]imidazole] | 580 nM | 578 nM | > 50000 nM | > 50000 nM | – | –
CC(C)N1C2CCC1CC(N1CCC(c3cc(F)c4nc(-c5ccc(S(C)(=O)=O)cc5)n(C)c4c3)CC1)C2 (single isomer, unassigned) [Example 106, 4-fluoro-6-(1-(8-isopropyl-8-azabicyclo[3.2.1]octan-3-yl)piperidin-4-yl)-1-methyl-2-(4-(methylsulfonyl)phenyl)-1H-benzo[d]imidazole] | – | 387 nM | 35100 nM | > 50000 nM | 390 nM | –
COc1ccc(-c2nc3c(C)cc(C4CCN(C5CC6(C5)CN(CC5CC5)C6)CC4)cc3n2C)cc1OC [Example 48, 6-(1-(2-(cyclopropylmethyl)-2-azaspiro[3.3]heptan-6-yl)piperidin-4-yl)-2-(3,4-dimethoxyphenyl)-1,4-dimethyl-1H-benzo[d]imidazole] | – | 19 nM | > 50000 nM | > 50000 nM | 19 nM | –
Cc1cc(C2CCN(C3CCN(CC(C)C)CC3)CC2)cc2[nH]c(-c3ccc4nccn4c3)nc12 [Example 25, 2-(imidazo[1,2-a]pyridin-6-yl)-6-(1′-isobutyl-[1,4′-bipiperidin]-4-yl)-4-methyl-1H-benzo[d]imidazole] | – | 164 nM | 3000 nM | > 50000 nM | 160 nM | –
COc1ccc(-c2nc3ccc(C4CCN(C5CCN(C(C)C)CC5)CC4)cc3n2CC(F)F)cc1OC [Example 4, 1-(2,2-difluoroethyl)-2-(3,4-dimethoxyphenyl)-6-(1′-isopropyl-[1,4′-bipiperidin]-4-yl)-1H-benzo[d]imidazole] | – | 253 nM | 4700 nM | > 50000 nM | 250 nM | –
COc1ccc(-c2nc3c(C)cc(C4CCN(C5CCN(C(C)C)CC5)CC4)cc3n2C)cc1F [Example 23, 2-(3-fluoro-4-methoxyphenyl)-6-(1′-isopropyl-[1,4′-bipiperidin]-4-yl)-1,4-dimethyl-1H-benzo[d]imidazole] | – | 159 nM | 8800 nM | > 50000 nM | 160 nM | –

Now from value to compound:

IC50 [1] | IC50 [1, 4] | IC50 [2] | IC50 [3] | IC50 [1, 5] | IC50 [1, 6] | SMILES
290 nM | 290 nM | ≥ 51200 nM | > 50000 nM | – | – | COCCN1C2CCC1CC(N1CCC(c3cc4c(cc3F)nc(-c3ccc(S(C)(=O)=O)cc3)n4C)CC1)C2 (single isomer, unassigned) [Example 239, 5-fluoro-6-(1-(8-(2-methoxyethyl)-8-azabicyclo[3.2.1]octan-3-yl)piperidin-4-yl)-1-methyl-2-(4-(methylsulfonyl)phenyl)-1H-benzo[d]imidazole]
– | 64 nM | > 50000 nM | > 50000 nM | – | 64 nM | Cn1c(-c2ccc(S(C)(=O)=O)cc2)nc2ccc(C3CCN(C4CCCN(C5CCC5)CC4)CC3)c(F)c21 (centres unmarked) [Example 312, 6-(1-(1-cyclobutylazepan-4-yl)piperidin-4-yl)-7-fluoro-1-methyl-2-(4-(methylsulfonyl)phenyl)-1H-benzo[d]imidazole]
– | 111 nM | 2000 nM | 18400 nM | – | 110 nM | CS(=O)(=O)c1ccc(-c2nc3c(F)cc(C4CCN(C5CC6CCC(C5)N6C5CCC5)CC4)cc3n2C2CC2)cc1 (single isomer, unassigned) [Example 327, 6-(1-(8-cyclobutyl-8-azabicyclo[3.2.1]octan-3-yl)piperidin-4-yl)-1-cyclopropyl-4-fluoro-2-(4-(methylsulfonyl)phenyl)-1H-benzo[d]imidazole]
– | 269 nM | 10200 nM | > 50000 nM | – | 270 nM | Cc1cc(C2CCN(C3CCN(c4ccccc4)CC3)CC2)cc2c1nc(-c1ccc(S(C)(=O)=O)cc1)n2C [Example 318, 1,4-dimethyl-2-(4-(methylsulfonyl)phenyl)-6-(1′-phenyl-[1,4′-bipiperidin]-4-yl)-1H-benzo[d]imidazole]
110 nM | 110 nM | 18300 nM | > 50000 nM | – | – | Cn1c(-c2ccc(S(C)(=O)=O)cc2)nc2cc(C3CCN(C4CCN(C5CCOCC5)CC4)CC3)cc(F)c21 [Example 207, 7-fluoro-1-methyl-2-(4-(methylsulfonyl)phenyl)-5-(1′-(tetrahydro-2H-pyran-4-yl)-[1,4′-bipiperidin]-4-yl)-1H-benzo[d]imidazole]
